Test results reported in patent US10611728B2, “Isoindoline compositions and methods for treating neurodegenerative disease” (priority 2014, dated 2020).
“Also recorded” adds a separate entry of the source.

Assays:
[1] = tested on: neurons; conditions: neuronal cultures treated 24 hours; cited from earlier work
[2] = tested on: caspase-3; conditions: cited from earlier work; for caspase-3 activation by ligand: tumor cells and neurons
[3] = Microsomal stability in mouse liver microsomes (MLM); type: in vitro ADME; conditions: mouse, microsomes
Protocol: A first pharmacokinetic study was performed in microsomes of mice mouse liver microsomes, MLM) by a commercial contract research organization. The studies were performed according to Obach, R. S et al. (1997) J. Pharmacol. Exp. Ther., 283: 46-58, which is incorporated herein by reference.

[4] = tested on: neuronal cultures; assay: Functional neuronal phenotype in neuronal cultures; type: cell-based
Protocol: Neuronal cultures are treated with various concentrations of sigma compounds for 24 hours and nuclear intensity compared to vehicle is measured.

| Mouse liver microsomes, MLM t½ [3] [min] | SMILES | nuclear morphology / nuclear intensity in neurons [1] | caspase-3 activation by ligand [2] | inhibition of caspase-3 activation in tumor cells ([2]; tumor cells) | neuronal phenotype [4] |
| --- | --- | --- | --- | --- | --- |
|  | COc1cc2c(cc1OC)CN(CCCCNC(=O)c1cc(C)ccc1OC)CC2 [RHM-1, N-[4-(3,4-dihydro-6,7-dimethoxyisoquinolin-2(1H)-yl)butyl]-2-methoxy-5-methylbenzamide] | do not decrease nuclear intensity | do not induce caspase-3 activity | inhibits the activation in tumor cells |  |
| 4 | CC(C)Oc1cc(CC[C@@H](C)N2Cc3cc4c(cc3C2)OCO4)ccc1O [compound 25] |  |  |  | Inactive/IAACon |
|  | COc1ccc(C)cc1NC(=O)OC1C[C@H]2CCC[C@@H](C1)N2CCCCCCN (stereo partly shown) [SV-119] | cause significant abnormal nuclear morphology in neurons | activate caspase-3 in tumor cells and neurons |  |  |
|  | Fc1ccc(-n2cc(CCCCN3CCC4(CC3)OCc3ccccc34)c3ccccc32)cc1 [Siramesine] | cause significant abnormal nuclear morphology in neurons | activate caspase-3 in tumor cells and neurons; also recorded: induces caspase-3 activity |  |  |
| 6 | CC(C)Oc1cc(CCC(C)(C)N2Cc3cc4c(cc3C2)OCO4)ccc1O [compound 29] |  |  |  | Inactive/IAACon |

| SMILES | Mouse liver microsomes, MLM t½ [3] [min] | nuclear morphology / nuclear intensity in neurons [1] | caspase-3 activation by ligand [2] | inhibition of caspase-3 activation in tumor cells ([2]; tumor cells) | neuronal phenotype [4] |
| --- | --- | --- | --- | --- | --- |
| C[C@H](CCc1ccc(OC(=O)N(C)C)c(OC(F)(F)F)c1)N1Cc2cccc(F)c2C1 [compound 41] | 9 |  |  |  | Inactive/IAACon |
